Patent US5470854A, “2-phenylbenzo[B]furans, process for their manufacture and pharmaceutical preparations containing them” (Schering Aktiengesellschaft, priority 1991, dated 1995)

Tests used:
[1] = system: human MCF-7 mamma carcinoma cells; assay: Effect on cell growth of MCF-7 cells; format: cell-based; conditions: for activity at 10 µM / activity at 1 µM / activity at 0.1 µM / activity at 5 µM: Homo sapiens, MCF7, mean of 16 individual results, read-out: T/C (corrected); for activity at 10 µM: 1 × 10^-5 M; for activity at 1 µM: 1 × 10^-6 M; for activity at 0.1 µM: 1 × 10^-7 M; for activity at 5 µM: 5 × 10^-6 M
Description: Data given as corrected T/C values (%).
^a Inhibiting effect on MCF7 cells: quotient of optical densities fro
standard deviation through error reckoning according to GAUSS.
^b Substance concentration (mol/1) in incubation medium.
^c Significant p < 0.01 in relation to control group (C).

oestrogen receptor = target: T1, oestrogen receptor (Bos taurus, UniProt P49884); assay: Relative bonding affinity to the oestrogen receptor (competition with 3H-17β-Estradiol); format: binding, calf; conditions: for RBA* (relative bonding affinity to the oestrogen receptor): calves' uteri, in relation to 17β-estradiol = 100
T1 construct: oestrogen receptor of a calf's uterus; from tissue; host or cells: calf uterus
T1 sequence (P49884 1-596): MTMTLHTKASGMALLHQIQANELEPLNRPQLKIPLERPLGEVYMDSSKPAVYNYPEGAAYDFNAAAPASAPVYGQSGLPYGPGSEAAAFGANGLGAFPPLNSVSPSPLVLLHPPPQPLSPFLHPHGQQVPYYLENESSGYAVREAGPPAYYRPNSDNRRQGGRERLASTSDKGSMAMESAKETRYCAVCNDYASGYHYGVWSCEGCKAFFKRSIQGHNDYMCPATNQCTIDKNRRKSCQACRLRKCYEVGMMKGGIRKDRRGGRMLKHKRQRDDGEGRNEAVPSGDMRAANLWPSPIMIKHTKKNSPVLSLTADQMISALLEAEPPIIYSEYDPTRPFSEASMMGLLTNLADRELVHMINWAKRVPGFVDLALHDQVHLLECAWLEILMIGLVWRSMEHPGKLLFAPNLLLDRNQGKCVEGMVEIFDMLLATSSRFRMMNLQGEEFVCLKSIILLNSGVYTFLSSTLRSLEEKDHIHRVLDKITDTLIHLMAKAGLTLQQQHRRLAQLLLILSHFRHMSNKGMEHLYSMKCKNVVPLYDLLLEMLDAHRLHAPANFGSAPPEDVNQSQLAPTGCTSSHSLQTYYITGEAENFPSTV
Text: The test methodology is described in Cancer Treatment Reviews 1984, 11, 147.
*Relative bonding affinities to the oestrogen receptor of calves' uteri,
in relation to 17β-estradiol = 100

uterus of infantile mice [2] = assay: Anti-uterotrophic test (in-vivo test on infantile mice); conditions: simultaneous 0.4 μg oestron/animal/day; for anti-uterotrophic test, effect: uterus dry weight (mg)/body weight (g) × 100
Description: (§1) The effectiveness of these compounds was found in an in-vivo test on infantile mice. This test is extensively described in Cancer Treatment Reviews 1984, 11, 147, and J. Med. Chem., 1984, 27, 1439.
(§2) ^a dosage/animal, administered s.c. on three consecutive days in oliv
(§3) ^b uterus dry weight (mg)/body weight (g) × 100, determined 24
(§4) hours after the final injection.
^c simultaneous administration of 0.4 μg oestron/animal/day.

uterus of infantile mice [3] = assay: Uterotrophic test (in-vivo test on infantile mice); conditions: uterus dry weight (mg)/body weight (g) × 100
Description: as §1, §2, §3, §4

[4] = 1 μg/animal s.c. on three consecutive days
[5] = 5 μg/animal s.c. on three consecutive days
[6] = 25 μg/animal s.c. on three consecutive days
[7] = 125 μg/animal s.c. on three consecutive days

| Compound | effect on the growth of MCF-7 / hormone-dependent tumour cells, in words [1] | activity at 10 µM [1] | activity at 1 µM [1] | activity at 0.1 µM [1] | activity at 5 µM [1] | RBA* (relative bonding affinity to the oestrogen receptor) (oestrogen receptor) | anti-uterotrophic test, inhibition (uterus of infantile mice [2]; 5 μg/animal s.c.) | anti-uterotrophic test, inhibition (uterus of infantile mice [2]; 25 μg/animal s.c.) | anti-uterotrophic test, effect (uterus of infantile mice [2]; 1 μg/animal s.c.) | anti-uterotrophic test, effect (uterus of infantile mice [2]; 5 μg/animal s.c.) | anti-uterotrophic test, effect (uterus of infantile mice [2]; 25 μg/animal s.c.) | uterotrophic test, effect (uterus of infantile mice [3]; [4]) | uterotrophic test, effect (uterus of infantile mice [3]; [5]) | uterotrophic test, effect (uterus of infantile mice [3]; [6]) | affinity to the oestrogen (estradiol) receptor, in words (oestrogen receptor) | anti-uterotrophic test, inhibition (uterus of infantile mice [2]; 125 μg/animal s.c.) | anti-uterotrophic test, effect (uterus of infantile mice [2]; 125 μg/animal s.c.) | uterotrophic test, effect (uterus of infantile mice [3]; [7]) |
| --- | --- | --- | --- | --- | --- | --- | --- | --- | --- | --- | --- | --- | --- | --- | --- | --- | --- | --- |
| Cc1c(-c2ccc(O)cc2)oc2ccc(O)cc12 [Compound 61a] | strongly inhibiting effect | 13.3 ± 5.3% | 78.1 ± 17.2% | 72.3 ± 18.2% | 37.7 ± 11.9% | 2,0 |  |  |  |  |  |  |  |  |  |  |  |  |
| Cc1c(-c2ccc(O)cc2)oc2cc(O)ccc12 [Compound 61b, 6-hydroxy-2-(4-hydroxyphenyl)-3-methylbenzo[b]furan] |  |  |  |  |  | 0,2 |  |  |  |  |  |  |  |  |  |  |  |  |
| CCc1c(-c2ccc(O)cc2)oc2ccc(O)cc12 [Compound 62a, 3-ethyl-5-hydroxy-2-(4-hydroxyphenyl)benzo[b]furan] | strongly inhibiting effect | -0.2 ± 2.9% | 49 ± 12.6% | 65 ± 13.5% | 0.3 ± 3.8% | 15,7 | 10% | 22% | 44.2 ± 7.8 mg/g × 100 | 39.1 ± 4.2 mg/g × 100 | 35.6 ± 2.6 mg/g × 100 | 10.5 ± 1.9 mg/g × 100 | 14.6 ± 2.4 mg/g × 100 | 19.0 ± 4.4 mg/g × 100 | greatest affinity in relation to estradiol |  |  |  |
| CCc1c(-c2ccc(O)cc2)oc2cc(O)ccc12 [Compound 62b, 3-ethyl-6-hydroxy-2-(4-hydroxyphenyl)benzo[b]furan] |  |  |  |  |  | 0,6 |  |  |  | 60.3 ± 5.8 mg/g × 100 | 56.9 ± 7.1 mg/g × 100 | 12.9 ± 2.5 mg/g × 100 | 14.5 ± 3.7 mg/g × 100 | 17.0 ± 3.3 mg/g × 100 |  | 12% | 49.8 ± 7.9 mg/g × 100 | 18.3 ± 6.3 mg/g × 100 |
| CCCc1c(-c2ccc(O)cc2)oc2ccc(O)cc12 [Compound 63a, 5-hydroxy-2-(4-hydroxyphenyl)-3-propylbenzo[b]furan] | strongly inhibiting effect | -2.1 ± 2.8% | 50.5 ± 8.8% | 51 ± 11.3% | -0.1 ± 3.6% | 20,0 |  |  |  |  |  |  |  |  | greatest affinity in relation to estradiol |  |  |  |
| CCCc1c(-c2ccc(O)cc2)oc2cc(O)ccc12 [Compound 63b, 6-hydroxy-2-(4-hydroxyphenyl)-3-propylbenzo[b]furan] |  |  |  |  |  | 1,7 |  |  |  |  |  |  |  |  |  |  |  |  |
| CCCCc1c(-c2ccc(O)cc2)oc2ccc(O)cc12 [Compound 64a, 3-butyl-5-hydroxy-2-(4-hydroxyphenyl)benzo[b]furan] |  |  |  |  |  | 1,6 |  |  |  |  |  |  |  |  |  |  |  |  |
| CCCCc1c(-c2ccc(O)cc2)oc2cc(O)ccc12 [Compound 64b, 3-butyl-6-hydroxy-2-(4-hydroxyphenyl)benzo[b]furan] |  |  |  |  |  | 0,6 |  |  |  |  |  |  |  |  |  |  |  |  |
| Oc1ccc(-c2oc3ccc(O)cc3c2CCCCCCN2CCCCC2)cc1 [Compound 68a, 5-hydroxy-2-(4-hydroxyphenyl)-3-(6-N-piperidylhexyl)benzo[b]furan] | strongly inhibiting effect | -9.9 ± 1.8% | 51.6 ± 10.2% | 64.4 ± 12% | 10.4 ± 4.8% | 4,3 | 55% | 56% |  | 38.1 ± 7.5 mg/g × 100 | 37.6 ± 6.2 mg/g × 100 | 16.1 ± 2.1 mg/g × 100 | 17.3 ± 2.9 mg/g × 100 | 15.8 ± 1.9 mg/g × 100 |  | 48% | 41.8 ± 6.4 mg/g × 100 | 17.3 ± 3.2 mg/g × 100 |
| Oc1ccc(-c2oc3cc(O)ccc3c2CCCCCCN2CCCCC2)cc1 [Compound 68b, 6-hydroxy-2-(4-hydroxyphenyl)-3-(6-N-piperidylhexyl)benzo[b]furan] |  | -9.6 ± 2.9% | 42.9 ± 7.7% | 58.7 ± 17.1% | 12.1 ± 5.4% | 5,4 | 10% | 7% |  | 58.6 ± 7.1 mg/g × 100 | 59.9 ± 6.6 mg/g × 100 | 18.3 ± 1.9 mg/g × 100 | 18.8 ± 3.0 mg/g × 100 | 24.4 ± 3.8 mg/g × 100 |  |  | 68.7 ± 9.9 mg/g × 100 | 21.4 ± 3.7 mg/g × 100 |
| Cc1c(-c2ccc(O)cc2)sc2ccc(O)cc12 [Compound 102a, 5-hydroxy-2-(4-hydroxypheny)-3-methyibenxo[b]thiophen] | strongly inhibiting effect | 14.7 ± 6.4% | 87.4 ± 20% | 71.3 ± 18.8% | 48.5 ± 14.7% | 26,0 | 12% | 68% |  | 42.4 ± 4.0 mg/g × 100 | 23.1 ± 3.8 mg/g × 100 | 15.8 ± 2.1 mg/g × 100 | 20.8 ± 2.7 mg/g × 100 | 15.7 ± 2.3 mg/g × 100 | greatest affinity in relation to estradiol | 42% | 32.2 ± 3.8 mg/g × 100 | 18.5 ± 3.0 mg/g × 100 |
| Cc1c(-c2ccc(O)cc2)sc2cc(O)ccc12 [Compound 102b, 6-hydroxy-2-(4-hydroxyphenyl)-3-methylbenzo[b]thiophen] | strongly inhibiting effect | 10.9 ± 6.7% | 133 ± 43.4% | 125 ± 37.2% | 54.9 ± 17.9% | 9,7 | 7% | 30% |  | 47.0 ± 7.8 mg/g × 100 | 38.5 ± 3.7 mg/g × 100 | 10.9 ± 2.1 mg/g × 100 | 12.1 ± 1.9 mg/g × 100 | 16.9 ± 2.9 mg/g × 100 |  | 31% | 38.1 ± 5.8 mg/g × 100 | 21.9 ± 4.6 mg/g × 100 |
| CC/C(=C(\c1ccccc1)c1ccc(OCCN(C)C)cc1)c1ccccc1 [Tam, Tamoxifen, reference compound] |  | -5.7 ± 3.4% | 59.1 ± 14.1% | 56.5 ± 16.3% |  |  |  |  |  |  |  |  |  |  |  |  |  |  |
